Consider 9 molecules from patent US20240269073A1, “CO-AMORPHOUS FORMS FOR USE IN CANCER THERAPY” (Zerion Pharma APS, priority 2021, published 2024).

For series [1] the following is noted: equivalent glucocorticoid dose; cited from earlier work.
The test system of series [2] is plasma proteins, primarily albumin. The note with it: cited from earlier work.
The conditions of series [3]: cited from earlier work.
Series [4] in a line: Chemical compatibility of Olaparib with prednisolone on storage. The format is physicochemical. The note with it: Olaparib and Prednisolone combined, 1 month in sealed containers at 40° C. and 75% RH. How it is done:
An experiment was carried out to determine whether Olaparib is chemically compatible with prednisolone, both alone and in the co-amorphous form.

In series [5] the test system is high-risk mCSPC. The settings on record: cited from earlier work.
The test system of series [6] is prostate cancer. The settings on record: cited from earlier work.
For series [7] the following is noted: cited from earlier work. This is another data set of the same source.
The test system of series [8] is prostate cancer with mutations in DNA repair genes. The note with it: cited from earlier work.

For the molecule `C[C@]12CCC(=O)C=C1CC[C@@H]1[C@@H]2[C@@H](O)C[C@@]2(C)[C@H]1CC[C@]2(O)C(=O)CO` [Hydrocortisone], in series [1], the Equivalent amount is on record as 20 mg.

With `C[C@@H]1C[C@H]2[C@@H]3C[C@H](F)C4=CC(=O)C=C[C@]4(C)[C@H]3[C@@H](O)C[C@]2(C)[C@@]1(O)C(=O)CO` [Paramethasone], in series [1], the Equivalent amount is on record as 2 mg.

Take `CC1(C)C(=O)N(c2ccc(C#N)c(C(F)(F)F)c2)C(=S)N1c1ccc(C(N)=O)c(F)c1` [N-desmethyl enzalutamide]: the “bound to plasma proteins” value in series [2] is listed as 95%.

Turning to `CNC(=O)c1ccc(N2C(=S)N(c3ccc(C#N)c(C(F)(F)F)c3)C(=O)C2(C)C)cc1F` [Enzalutamide, 4-[3-[4-cyano-3-(trifluoromethyl)phenyl]-5,5-dimethyl-4-oxo-2-sulfanylideneimidazolidin-1-yl]-2-fluoro-N-methylbenzamide], in series [3], the water solubility result is reported as “less than 1 mg/mL”.

For the molecule `C[C@]12C=CC(=O)C=C1CC[C@H]1[C@@H]3C[C@@H](O)[C@](O)(C(=O)CO)[C@@]3(C)C[C@H](O)[C@@]12F` [Triamcinolone], in series [1], the Equivalent amount was 4 mg.

Take `C[C@]12C=CC(=O)C=C1CC[C@@H]1[C@@H]2[C@@H](O)C[C@@]2(C)[C@H]1CC[C@]2(O)C(=O)CO` [Prednisolone]: the “Degradation on combined storage” value in series [4] was “No degradations”. Further, the Equivalent amount in series [1] was 5 mg.

Consider `CC(=O)O[C@H]1CC[C@@]2(C)C(=CC[C@@H]3[C@@H]2CC[C@]2(C)C(c4cccnc4)=CC[C@@H]32)C1` [Abiraterone acetate, [(3S,8R,9S,10R,13S,14S)-10,13-dimethyl-17-pyridin-3-yl-2,3,4,7,8,9,11,12,14,15-decahydro-1H-cyclopenta[a]phenanthren-3-yl] acetate], for which the water solubility result in series [3] was “less than 1 mg/mL”. Also, in series [5] (1000 mg daily with prednisone 5 mg twice daily and GnRH agonist/antagonist), the mOS is listed as 53.3 months. In addition, in series [5] (1000 mg daily with prednisone and GnRH agonist/antagonist), the mPFS was 33.0 months. In addition, the “HR for mPFS vs placebo group” value in series [5] (95% CI, 0.39-0.55, P<0.001) is 0.47. Moreover, the “HR for mOS vs placebo arm” value in series [5] (P<0.001) is listed as 0.62. Moreover, in series [6] (P<0.001), the “HR for survival vs ADT-alone group” value is given as 0.63. Moreover, in series [6] (in vivo), the 3-year survival rate is 83%.

Regarding `CC(=O)OCC(=O)[C@@]1(O)CC[C@H]2[C@@H]3CCC4=CC(=O)CC[C@]4(C)[C@H]3C(=O)C[C@@]21C` [Cortisone acetate], the Equivalent amount in series [1] was 25 mg.

With `O=C(c1cc(Cc2n[nH]c(=O)c3ccccc23)ccc1F)N1CCN(C(=O)C2CC2)CC1` [Olaparib], the “Degradation on combined storage” value in series [4] is on record as “No degradations”. Further, the water solubility result in series [3] was “about 0.06 mg/mL”. Besides, in series [7] (after 7 days, total), the administered dose recovered result was “approximately 86%”. Further, in series [7] (after 7 days), the “administered dose found in urine” value is given as 44% and the “administered dose obtained in feces” value is recorded as 42%. In addition, in series [7] (after a dose of 200 mg), the area under the curve (AUC) (in general, the area under the concentration-time curve, a measure of exposure) was 25800 ng·h/mL. In series [7] (constant administration), the “increase of AUC with constant administration” value was 26%. Further, the “time to peak concentration” value in series [7] (following oral administration) was 1 to 3 h. Further, in series [7] (high-fat diet), the “effect of high-fat diet on peak concentration” value was “does not have an effect in the peak concentration” and the “effect of high-fat diet on tmax” value was “can decrease the tmax”. Moreover, the “unchanged form, share of the circulating dose” value in series [7] (in vivo) is on record as 70%. Moreover, the “median time lived without evidence of cancer getting worse” value in series [8] (cohort A (BRCA1, BRCA2 or ATM alterations)) was 7.4 months. Moreover, in series [8] (cohort A, versus abiraterone or enzalutamide), the “improvement of survival versus control” value is “more than 4 months”. In series [8] (cohort A), the overall survival is 19.1 months. Moreover, the “tumor response (tumors shrink)” value in series [8] (in vivo) was 33%.
